What all share (assay): SelectScreen Kinase Profiling, single point inhibition and IC50 for off-target kinases
What all share (assay type): biochemical

Test [1] addresses T1, off-target kinases (Homo sapiens, UniProt Q9BZL6).
T1 sequence (Q9BZL6 1-878): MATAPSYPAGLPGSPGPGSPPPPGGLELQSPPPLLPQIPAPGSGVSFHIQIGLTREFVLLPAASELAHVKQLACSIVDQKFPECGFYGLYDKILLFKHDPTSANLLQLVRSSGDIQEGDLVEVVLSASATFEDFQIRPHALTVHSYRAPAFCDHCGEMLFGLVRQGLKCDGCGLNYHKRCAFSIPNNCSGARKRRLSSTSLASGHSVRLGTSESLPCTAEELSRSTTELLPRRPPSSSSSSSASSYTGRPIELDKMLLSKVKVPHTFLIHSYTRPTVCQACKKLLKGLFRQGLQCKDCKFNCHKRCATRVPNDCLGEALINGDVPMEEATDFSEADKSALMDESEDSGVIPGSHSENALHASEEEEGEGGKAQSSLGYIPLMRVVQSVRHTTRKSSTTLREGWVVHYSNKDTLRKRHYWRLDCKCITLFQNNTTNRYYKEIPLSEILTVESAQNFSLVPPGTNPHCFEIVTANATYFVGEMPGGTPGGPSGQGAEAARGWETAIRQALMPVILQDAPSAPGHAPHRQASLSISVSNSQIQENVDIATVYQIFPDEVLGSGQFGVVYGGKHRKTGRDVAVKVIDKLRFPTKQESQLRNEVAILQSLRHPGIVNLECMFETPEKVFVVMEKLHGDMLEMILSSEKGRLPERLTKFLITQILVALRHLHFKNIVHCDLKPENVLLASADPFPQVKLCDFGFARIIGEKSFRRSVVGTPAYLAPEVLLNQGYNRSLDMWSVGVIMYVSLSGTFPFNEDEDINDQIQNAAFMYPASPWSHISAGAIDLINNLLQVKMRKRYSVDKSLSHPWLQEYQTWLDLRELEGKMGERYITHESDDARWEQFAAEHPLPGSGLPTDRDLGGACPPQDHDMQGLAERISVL
To be noted: PRKD2 (PKD2), ATP Km app, ZLYTE.

The target of test [2] is off-target kinases (Homo sapiens, UniProt Q96SB4). Particulars: SRPK1, ZLYTE, ATP Km app.
Test [3] addresses T2, off-target kinases (Homo sapiens, UniProt Q15835).
T2 sequence (Q15835 1-563): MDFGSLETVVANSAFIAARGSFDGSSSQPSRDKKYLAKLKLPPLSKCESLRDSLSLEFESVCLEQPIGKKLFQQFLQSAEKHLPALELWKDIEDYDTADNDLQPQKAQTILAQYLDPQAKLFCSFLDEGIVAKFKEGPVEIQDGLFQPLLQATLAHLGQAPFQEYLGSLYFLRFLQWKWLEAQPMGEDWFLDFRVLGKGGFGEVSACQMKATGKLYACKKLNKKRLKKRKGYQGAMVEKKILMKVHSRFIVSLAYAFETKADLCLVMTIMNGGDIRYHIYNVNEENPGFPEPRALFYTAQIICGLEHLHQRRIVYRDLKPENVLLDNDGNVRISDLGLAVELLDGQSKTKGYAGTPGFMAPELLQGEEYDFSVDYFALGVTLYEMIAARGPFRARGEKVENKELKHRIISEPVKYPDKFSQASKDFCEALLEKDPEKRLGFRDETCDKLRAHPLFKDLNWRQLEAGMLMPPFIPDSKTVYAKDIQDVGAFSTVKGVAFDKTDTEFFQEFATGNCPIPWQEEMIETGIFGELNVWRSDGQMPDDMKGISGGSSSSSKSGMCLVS
To be noted: GRK1, LanthaScreen Binding.

The record followed here is US11572590B2, “Methods for evaluating tumor cell spheroids using 3D microfluidic cell culture device” (Dana-Farber Cancer Institute, Inc., priority 2017, dated 2023).

Like-named read-outs stand apart in the source and are kept apart here.

off-target kinases (Homo sapiens, UniProt Q96SB4), sequence (Q96SB4 whole entry): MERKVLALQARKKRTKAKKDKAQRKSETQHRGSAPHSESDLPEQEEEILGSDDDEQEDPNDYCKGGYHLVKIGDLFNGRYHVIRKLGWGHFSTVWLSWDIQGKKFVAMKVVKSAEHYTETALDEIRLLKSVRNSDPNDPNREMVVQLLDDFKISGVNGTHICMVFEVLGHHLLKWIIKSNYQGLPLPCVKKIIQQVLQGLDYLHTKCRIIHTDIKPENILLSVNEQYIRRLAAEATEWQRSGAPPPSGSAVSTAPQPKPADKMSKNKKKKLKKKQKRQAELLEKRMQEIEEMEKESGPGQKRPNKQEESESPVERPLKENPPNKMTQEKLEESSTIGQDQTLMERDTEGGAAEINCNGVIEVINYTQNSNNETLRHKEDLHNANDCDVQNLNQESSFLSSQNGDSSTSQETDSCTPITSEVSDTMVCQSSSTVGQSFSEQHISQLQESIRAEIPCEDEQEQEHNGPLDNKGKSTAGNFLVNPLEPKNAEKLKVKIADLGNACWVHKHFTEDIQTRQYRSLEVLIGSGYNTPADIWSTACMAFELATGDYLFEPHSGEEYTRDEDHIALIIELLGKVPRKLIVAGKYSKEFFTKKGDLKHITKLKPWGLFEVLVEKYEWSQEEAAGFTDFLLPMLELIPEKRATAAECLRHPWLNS

Broadly, the inhibition is the relative decrease from the control value, in per cent. On to `N#Cc1cc(-c2ncnc(Nc3ccc(N4CCN(C5COC5)CC4)cc3)n2)ccc1OC1CCOCC1` [Compound 1, 5-(4-((4-(4-(oxetan-3-yl)piperazin-1-yl)phenyl)amino)-1,3,5-triazin-2-yl)-2-((tetrahydro-2H-pyran-4-yl)oxy)benzonitrile], for which the inhibition on off-target kinases [1] (read-out: % Inhibition 1) was 99%; on off-target kinases [1] (read-out: % Inhibition 2) it was 97%; at off-target kinases [1] (read-out: % Inhibition Avg) it was 98%; on off-target kinases [2] (read-out: % Inhibition 1), -1%; on off-target kinases [2] (read-out: % Inhibition 2) it was -2%; on off-target kinases [2] (read-out: % Inhibition Avg), -2%. Further, the inhibition on off-target kinases [3] (read-out: % Inhibition 1) amounted to 7%; at off-target kinases [3] (read-out: % Inhibition 2), 2%; on off-target kinases [3] (read-out: % Inhibition Avg), 5%.
